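Where inhibition never reached the appropriate level, the endpoint shown equals the highest concentration tested. Otherwise, values were interpolated linearly from a five-concentration, 48-hour dose response in 96-well plates. Abbreviation: GI50, concentration required for 50% inhibition of growth.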 The source made the active and inactive calls. No stated cut-off is given here; in the data, active = GI50 up to about 1.1 µM and inactive = higher.
Legend:
Assay in all cases: NCI-60 cell line screen, 48 h
UACC-257 = system: UACC-257
EKVX = system: EKVX
NCI-H460 = system: NCI-H460
KM12 = system: KM12
SF-268 = system: SF-268
SR = system: SR
COLO 205 = system: COLO 205
HOP-18 = system: HOP-18
DMS-273 = system: DMS-273
HOP-92 = system: HOP-92
NCI-H522 = system: NCI-H522
SF-539 = system: SF-539
HT-29 = system: HT-29
SF-295 = system: SF-295
SNB-19 = system: SNB-19
OVCAR-4 = system: OVCAR-4
SK-OV-3 = system: SK-OV-3
HCT-15 = system: HCT-15
NCI-H226 = system: NCI-H226
A498 = system: A498
K562 = system: K562
IGROV-1 = system: IGROV-1
DMS-114 = system: DMS-114
CCRF-CEM = system: CCRF-CEM
SNB-78 = system: SNB-78
HCC 2998 = system: HCC 2998
OVCAR-5 = system: OVCAR-5
UO-31 = system: UO-31
TK-10 = system: TK-10
LOX IMVI = system: LOX IMVI
CAKI-1 = system: CAKI-1
SK-MEL-2 = system: SK-MEL-2
SW-620 = system: SW-620
OVCAR-8 = system: OVCAR-8
HL-60 = system: HL-60
DLD-1 = system: DLD-1
OVCAR-3 = system: OVCAR-3
XF498 = system: XF498
SN12C = system: SN12C
SNB-75 = system: SNB-75
SK-MEL-5 = system: SK-MEL-5
U-251 = system: U-251
M14 = system: M14
RPMI-8226 = system: RPMI-8226
MOLT-4 = system: MOLT-4
Malme-3M = system: Malme-3M
M19-MEL = system: M19-MEL
LXFL 529 = system: LXFL 529
UACC-62 = system: UACC-62
786-0 = system: 786-0
ACHN = system: ACHN
HCT-116 = system: HCT-116
KM-20L2 = system: KM-20L2
HOP-62 = system: HOP-62
SK-MEL-28 = system: SK-MEL-28
RXF 393 = system: RXF 393
A549 = system: A549
NCI-H23 = system: NCI-H23
RXF 631 = system: RXF 631

Measured: GI50

CCc1c(-c2coc(CC/C(C)=C/c3ccccc3)n2)oc(OC)c(C)c1=O
18.7 µM: HCT-15
active: SR < 0.01 µM | NCI-H522 0.209 µM | K562 0.122 µM | DMS-114 < 0.01 µM
inactive: UACC-257 > 100 µM | EKVX 25.4 µM | NCI-H460 18.7 µM | KM12 78.9 µM | SF-268 > 100 µM | COLO 205 21.5 µM | HOP-18 > 57.3 µM | DMS-273 10.1 µM | HOP-92 34.6 µM | SF-539 28 µM | HT-29 24.8 µM | SF-295 1.77 µM | SNB-19 23.1 µM | OVCAR-4 > 39 µM | SK-OV-3 32.7 µM | NCI-H226 68.2 µM | A498 99.8 µM | IGROV-1 > 83.8 µM | CCRF-CEM 14.9 µM | SNB-78 53.3 µM | HCC 2998 78.7 µM | OVCAR-5 > 100 µM | UO-31 5.35 µM | TK-10 > 100 µM | LOX IMVI 15.1 µM | CAKI-1 > 52.2 µM | SK-MEL-2 60.1 µM | SW-620 9.25 µM | OVCAR-8 19.9 µM | HL-60 5.13 µM | DLD-1 26.8 µM | OVCAR-3 45.2 µM | XF498 17.7 µM | SN12C > 42.1 µM | SNB-75 49.4 µM | SK-MEL-5 4.12 µM | U-251 29 µM | M14 34.8 µM | RPMI-8226 11.7 µM | MOLT-4 10.9 µM | Malme-3M > 59.8 µM | M19-MEL 31.8 µM | LXFL 529 5.96 µM | UACC-62 17.6 µM | 786-0 18.1 µM | ACHN 22.5 µM | HCT-116 19 µM | KM-20L2 28.5 µM | HOP-62 > 40 µM | SK-MEL-28 > 100 µM

COc1cc(/C=C2/C(=O)NC(Cc3cc(OC)c(OC)c(C)c3OC)C(=O)N2Cc2ccccc2)c(OC)c(C)c1OC (stereo not given)
inactive: UACC-257 61.5 µM | EKVX 38.9 µM | NCI-H460 38.1 µM | KM12 55.5 µM | SF-268 69.5 µM | SR 14.3 µM | COLO 205 17.7 µM | HOP-18 18.3 µM | DMS-273 51.5 µM | HOP-92 17.8 µM | NCI-H522 18.2 µM | SF-539 75 µM | HT-29 79.8 µM | SF-295 50.5 µM | SNB-19 81.3 µM | OVCAR-4 44.4 µM | SK-OV-3 49.2 µM | NCI-H226 58.6 µM | A498 44.4 µM | K562 44.2 µM | IGROV-1 61.9 µM | DMS-114 38.2 µM | CCRF-CEM 39.7 µM | HCC 2998 55.1 µM | OVCAR-5 93.8 µM | UO-31 26 µM | TK-10 56.5 µM | LOX IMVI 70 µM | CAKI-1 39.6 µM | SK-MEL-2 30.2 µM | RXF 393 > 100 µM | SW-620 80.2 µM | OVCAR-8 47.4 µM | A549 > 100 µM | HL-60 24.4 µM | DLD-1 72.3 µM | OVCAR-3 47.2 µM | SN12C 54.3 µM | SNB-75 45.6 µM | NCI-H23 79.8 µM | SK-MEL-5 43.7 µM | U-251 48.2 µM | M14 33 µM | RPMI-8226 24.3 µM | RXF 631 90.2 µM | MOLT-4 23 µM | Malme-3M 30.8 µM | M19-MEL 47.4 µM | LXFL 529 34.8 µM | UACC-62 89.7 µM | 786-0 79.3 µM | ACHN 61.7 µM | HCT-116 > 100 µM | KM-20L2 95.9 µM | HOP-62 > 100 µM | SK-MEL-28 > 100 µM

C=CC1(C)CCC(C(C)C(=O)C(C=C(C)C)OC(C)=O)C12C(=O)Oc1ccccc1C2=O (stereo not given)
38.5 µM: HCT-15
inactive: UACC-257 35 µM | EKVX 60.8 µM | NCI-H460 29.6 µM | KM12 44.8 µM | SF-268 62.1 µM | SR 33.6 µM | COLO 205 29.4 µM | HOP-18 95.3 µM | DMS-273 23.4 µM | HOP-92 40.2 µM | NCI-H522 31.6 µM | SF-539 > 100 µM | HT-29 35.3 µM | SF-295 47.9 µM | SNB-19 > 100 µM | OVCAR-4 45.2 µM | SK-OV-3 82.2 µM | NCI-H226 58.5 µM | K562 31.6 µM | IGROV-1 72.3 µM | DMS-114 26 µM | CCRF-CEM 27 µM | SNB-78 79.4 µM | HCC 2998 82.4 µM | UO-31 34.4 µM | TK-10 > 100 µM | LOX IMVI 35.7 µM | SK-MEL-2 32.7 µM | RXF 393 26.7 µM | SW-620 63.8 µM | OVCAR-8 37.6 µM | A549 35.7 µM | HL-60 19.7 µM | DLD-1 54.5 µM | OVCAR-3 38.9 µM | XF498 54 µM | SN12C 49.4 µM | SNB-75 52.5 µM | NCI-H23 46.7 µM | U-251 38 µM | M14 54.2 µM | RPMI-8226 23.7 µM | MOLT-4 26.2 µM | Malme-3M 48.5 µM | M19-MEL 26.2 µM | LXFL 529 37.8 µM | UACC-62 49 µM | 786-0 84.1 µM | ACHN 51.5 µM | HCT-116 31.1 µM | KM-20L2 51.3 µM | HOP-62 35.2 µM | SK-MEL-28 > 100 µM

From ChEMBL document CHEMBL1201862, “PubChem BioAssay data set” (2004)
